Data published in patent US20230029496A1, “AMINO ACID ALTERNATIVE CURING SYSTEM” (THE TEXAS A&M UNIVERSITY SYSTEM, priority 2019, published 2023).
Values joined by “and” are separate entries in the source; they are usually repeats but may differ in a detail not shown here. Identical values can stand only once. Like-named read-outs stand apart in the source and are kept apart here. Marks after values point to notes of the source that are not given here.

How the values were obtained:
[1] = tested on: Nitric Oxide Synthase (NOS) system; assay: NO-heme, total heme, nitrosylation in plastic casing test tube ground pork loin sausages (Example 10); conditions: for Nitrosylation / NO-Heme / Total Heme: cooked; for NO-Heme / Total Heme: ppm acid hematin
Experimental: The desired cured color could not initially be generated in a variety of processed meat products in a pilot plant setting. […] Pork loins (N=2) procured from a local meat distributor (Mar. 18, 2019) were used. Eight pounds of pork loins were ground (½″ then ¼″ plate) and weighed out in one pound portions. Plastic waterproof casings (2″ diameter) were clipped at one end. One pound of ground pork loin was placed in the casing and two pounds of brine (L-arginine concentration 7498 ppm) were added and the open end of the casing clipped. Based on laboratory test tube studies, meat samples would absorb 20-25% of the solution which equates to absorption of approximately 1500 ppm of L-arginine. Each plastic casing contained the same proportion of meat and brine as conducted during previous laboratory experiments (Table 12). A control was manufactured by substituting distilled water for the L-arginine brine.
After thermal processing the plastic casing test tubes were cut open and emptied into beakers, then separated into residue (meat particles) and supernatant (liquid) via paper filtration into 50 mL conical tubes for collection and subsequent analysis for residual nitrite (supernatant) and cured pigment formation/nitrosylation (meat residue).
Nitrosylation and residual nitrite analyses was performed under reduced light to avoid loss of pigmentation. L-arginine treated test tube pork sausage averaged 53.12 to 72.30 ppm of residual nitrite in the cooked meat pellet with percent nitrosylation ranging from 33 to 60 percent (Table 13). The brine was formulated to deliver 1500 ppm ingoing L-arginine at 25% absorption into the meat after two hours of immersion in the brine solution.

[2] = tested on: eNOS system
Procedure: Two (N=2) of these pork loins were cut into four sections (˜1 kg; 8 pieces total) and weighed prior to injection with the test brine solution (Table 8). Initial muscle pH was prior to injection before injection (10, 15, 20 or 25%) as well as brine pH was measured (Table 9). The test brine was manufactured for a targeted 25% injection level (Table 8) and was prepared on the day of manufacture to simulate a commercial ham cure containing water, sodium tri-polyphosphate, salt (NaCl), L-arginine, sodium erythorbate (NaE) and sugar. […] Brine percentages were calculated to simulate ingoing arginine of test tube trials (5569 ingoing arginine, 547 ppm NaE, 0.9% NaCl).
Samples were weighed before and after injection to ensure pickup percentage as close to the target weights of 10, 15, 20, and 25% pickup. Samples were vacuum packaged and held for two hours before thermal processing to simulate previous laboratory test tube trials.
After cooking and stabilization at room temperature, loin sections were sliced perpendicular to the long axis of the muscle fibers to determine if any nitrosylation (nitric oxide (NO) bound to myoglobin) occurred, resulting in the characteristic cured (pink) color. […] Based on an ingoing L-arginine brine concentration of 5545 ppm, there would be approximately 554, 830 and 1110 and 1385 ppm of ingoing L-arginine at 10, 15, 20 and 25% injection levels, respectively.

[3] = tested on: Nitric Oxide Synthase (NOS) system; assay: Residual nitrite in pre-rigor pork semimembranosus muscle immersed in L-arginine (first study); type: biochemical
Experimental: Pre-rigor pork Semimembranosus muscle samples were collected from four pre-rigor pork carcasses (n=4) harvested at the Rosenthal Meat Science and Technology Center at Texas A&M University at six separate times over a four day period (N=24). Muscle samples were treated with five concentrations of L-arginine, using water as the control treatment. Samples were either subjected to heat treatment (water bath increasing to 62° C. for 60 min) or left raw/fresh (uncooked). All treated muscle samples were analyzed for residual nitrite, and cooked samples were analyzed for nitrosylhemochromagen levels to determine curing efficiency.
Solutions were prepared according to Wu to stabilize the muscle samples for enclosed reactions within the 50 mL conical tubes. […] The NaCl was used to stabilize any reaction and the NaE was used to accelerate any cure reaction that could occur. The L-arginine was prepared separately so as to be administered in specific concentration once the five grams of meat was added to the reaction tubes by creating dilutions of millimolar concentrations at 0 mM, 2 mM, 4 mM, 8 mM, 16 mM, and 32 mM.
The procedures for determining the following sample reactions followed the procedures outlined by Wu 24 5 g muscle samples were individually placed into 50 mL conical tubes.
Residual nitrite was determined using the modified AOAC Official Method 973.31 (Nitrite Analysis in Cured Meats Procedure) and was verified by Wu with sample (plasma or serum) preparation for amino acid analysis by HPLC and determination of nitrite (UV/VIS Spectrophotometric Method). This procedure was used to determine any residual nitrite found in samples. All samples were tested three weeks after being held in a −30° C. freezer then thawed in a 0° C. cooler.
Procedure: • 1. Weigh 5 g (±0.01) of finely comminuted and thoroughly mixed sample into a 100 ml beaker. • 2. Add approximately 40 ml distilled water and heat to 80° C. Use a glass rod to break up all lumps and mix thoroughly. • 3. Transfer the heated solution to a 500 ml volumetric flask. Quantitatively wash the beaker and rod with successive portions of the hot distilled water, adding all washings to the flask (approximately 300 ml). • 4. Transfer the flask to a steam bath (˜100° C.) and shake occasionally for 2 hour. After cooling to room temperature, bring the volume to 500 ml with distilled water and remix. Filter through two Whatman No. 2 filter papers into flask and mix solution thoroughly (discard the residue). Then transfer 25 ml of the filtrate into a 50 ml volumetric flask then add 2.5 ml sulfanilamide reagent, mix thoroughly. • 5. After setting for 5 min, add 2.5 ml NED reagent, mix. Dilute to volume with distilled water, mix and set for another 15 min to let the color develop. • 6. Transfer a portion of the solution to the cuvette and read absorbance at 540 nm against a blank of 45 ml distilled water+2.5 ml sulfanilamide reagent+2.5 ml NED reagent.
• 1. Pipette 0.5 mL of plasma (or serum) to a 12×75 mm polypropylene tube. Place the tube in ice. • 2. Add 0.5 mL of […] to the tube (the tube remains in ice). • 3. Mix the tube well (using a vortex). • 4. After 2 min, add 0.25 mL of 2 M K2CO3 to the tube (the tube remains in ice). • 5.

SMILES: N=C(N)NCCC[C@H](N)C(=O)O [L-arginine]
- Nitrosylation ([1]; 10% L-arginine brine): 33.71^ab %
- NO-Heme ([1]; 10% L-arginine brine): 7.63^bc ppm
- Total Heme ([1]; 10% L-arginine brine): 22.66^a ppm
- Nitrosylation ([1]; 15% L-arginine brine): 45.19^a %
- NO-Heme ([1]; 15% L-arginine brine): 8.70^b ppm
- Total Heme ([1]; 15% L-arginine brine): 19.26^a ppm
- Nitrosylation ([1]; 20% L-arginine brine): 36.99^ab %
- NO-Heme ([1]; 20% L-arginine brine): 8.31^b ppm
- Total Heme ([1]; 20% L-arginine brine): 22.66^a ppm
- Nitrosylation ([1]; 25% L-arginine brine): 60.13^a %
- NO-Heme ([1]; 25% L-arginine brine): 16.24^a ppm
- Total Heme ([1]; 25% L-arginine brine): 28.56^a ppm
- percent nitrosylation ([1]; range over brine additions 10-25%): 33 to 60%
- Injected Loin pH ([2]; 10% injection of test brine (Table 8)): 7.15 and 7.12
- Injected Loin pH ([2]; 15% injection of test brine (Table 8)): 7.09 and 7.08
- Injected Loin pH ([2]; 20% injection of test brine (Table 8)): 7.03 and 7.14
- Injected Loin pH ([2]; 25% injection of test brine (Table 8)): 7.18 and 7.09
- increase of muscle pH ([2]; after injection of test brine with sodium tri-polyphosphate): ~2.0 pH units
- cured color formation after cooking ([2]; pork loin sections injected 10, 15, 20 or 25%, held two hours, cooked to 145° F.): no observable cured color formation
- Brine pH ([2]; test brine of Table 8: L-arginine 5545.41 ppm, with sodium tri-polyphosphate, salt, sugar, sodium erythorbate): 10.55
- Residual Nitrite ([3]; 2 mM L-arginine, cooked pellet): 10.46 ppm and 10.46^a ppm
- Residual Nitrite ([3]; 2 mM L-arginine, cooked supernatant): 5.81 ppm and 5.81^ab ppm
- Residual Nitrite ([3]; 2 mM L-arginine, raw supernatant, stored 3 weeks at -30° C.): 4.53^b ppm
- Residual Nitrite ([3]; 4 mM L-arginine, cooked pellet): 9.35 ppm and 9.35^a ppm
- Residual Nitrite ([3]; 4 mM L-arginine, cooked supernatant): 8.79 ppm and 8.79^a ppm
- Residual Nitrite ([3]; 4 mM L-arginine, raw supernatant, stored 3 weeks at -30° C.): 8.00 ppm and 8.00^ab ppm
- Residual Nitrite ([3]; 8 mM L-arginine, cooked pellet): 11.22 ppm and 11.22^a ppm
- Residual Nitrite ([3]; 8 mM L-arginine, cooked supernatant): 5.85 ppm and 5.85^ab ppm
- Residual Nitrite ([3]; 8 mM L-arginine, raw supernatant, stored 3 weeks at -30° C.): 9.66 ppm and 9.66^ab ppm
- Residual Nitrite ([3]; 16 mM L-arginine, cooked pellet): 14.06 ppm and 14.06^a ppm
- Residual Nitrite ([3]; 16 mM L-arginine, cooked supernatant): 3.19 ppm and 3.19^ab ppm
- Residual Nitrite ([3]; 16 mM L-arginine, raw supernatant, stored 3 weeks at -30° C.): 9.23 ppm and 9.23^ab ppm
- Residual Nitrite ([3]; 32 mM L-arginine, cooked pellet): 15.69 ppm and 15.69^a ppm
- Residual Nitrite ([3]; 32 mM L-arginine, cooked supernatant): 7.86 ppm and 7.86^ab ppm
- Residual Nitrite ([3]; 32 mM L-arginine, raw supernatant, stored 3 weeks at -30° C.): 14.34 ppm and 14.34^a ppm
- pH (L-arginine 3000 PPM, Day 1): 5.91
- pH (L-arginine 3000 PPM, Day 7): 5.86
- pH (L-arginine 3000 PPM, Day 14): 6.02
- pH (L-arginine 3000 PPM, Day 28): 6.06
- pH (L-arginine 4000 PPM, Day 1): 5.92
- pH (L-arginine 4000 PPM, Day 7): 5.90
- pH (L-arginine 4000 PPM, Day 14): 5.96
- pH (L-arginine 4000 PPM, Day 28): 6.00
- pH (L-arginine 5000 PPM, Day 1): 5.87
- pH (L-arginine 5000 PPM, Day 7): 5.92
- pH (L-arginine 5000 PPM, Day 14): 5.94
- pH (L-arginine 5000 PPM, Day 28): 6.01
